{"source": "patent US20100130515A1", "about": "“Polymorphs and solvates of a pharmaceutical and method of making” (BIOGEN IDEC INC., priority 2007, published 2010)", "key": {"[1]": {"test": "Relative stability of forms D and H by vapour diffusion experiment (XRPD)", "type": "physicochemical", "settings": "inferred from the higher desolvation temperature, XRPD results inconclusive", "from_the_text": "(§1) The relative stabilities of Forms D and H was investigated by a vapour diffusion experiment. Approximately equal amounts of the two forms were combined to produce an intimate mixture. The mixture was packed into a silicon XRPD holder and the XRPD of the mixture determined. The holder was then placed in a covered dish containing THF:NMP approx. 90:10 v/v at room temperature. The mixture was re-examined from time to time to monitor any changes in the XRPD pattern.\nThere was been no significant change in the XRPD traces over 12 days."}, "[2]": {"test": "Relative stability of forms A and B by vapour diffusion experiment (XRPD)", "type": "physicochemical", "settings": "NMP vapour, room temperature; for relative stability of the polymorphs: intimate mixture of forms A and B, followed by XRPD", "description": "as §1, with “the forms A” for “Forms D”, “B” for “H”, “determined” for “investigated”, “ground together” for “combined”, “silicon 510-cut recessed wafer” for “silicon”, “NMP (a known solvent 1)” for “THF:NMP approx. 90:10 v/v”\nThe traces from bottom to top in FIG. 8 were recorded initially, at 24 hours, at 3 days, at 1 week, at 10 days, and at 23 days; the topmost traces are a form A reference and a form B reference."}, "Parkinsonian patients": {"test_system": "Parkinsonian patients", "settings": "cited from earlier work"}, "cataleptic responses": {"test_system": "cataleptic responses", "settings": "cited from earlier work"}}, "data": [{"smiles": "Cc1cc(Cn2nnc3c(-c4ccco4)nc(N)nc32)ccc1N", "note": "[Form H, 3-(4-amino-3-methylbenzyl)-7-(furan-2-yl)-3H-[1,2,3]triazolo[4,5-d]pyrimidin-5-amine]", "values": [{"measurement": "relative stability of the THF solvates", "setting": "[1]", "result": "more likely to be the stable form"}]}, {"smiles": "Cc1cc(Cn2nnc3c(-c4ccco4)nc(N)nc32)ccc1N", "note": "[Form B, 3-(4-amino-3-methylbenzyl)-7-(furan-2-yl)-3H-[1,2,3]triazolo[4,5-d]pyrimidin-5-amine]", "values": [{"measurement": "time point by which the XRPD peaks characteristic of Form B disappear completely", "setting": "[2]; mixture of forms A and B", "result": "≤ 23", "unit": "days"}]}, {"smiles": "Cn1c(=O)c2[nH]cnc2n(C)c1=O", "note": "[theophylline, 1,3-dimethylxanthine]", "values": [{"measurement": "mean objective disability scores", "setting": "Parkinsonian patients; 15 Parkinsonian patients, up to 12 weeks, 150 mg/day", "result": "significant improvements"}, {"measurement": "patients reporting moderate or marked subjective improvement", "setting": "Parkinsonian patients; of 15 Parkinsonian patients, up to 12 weeks, 150 mg/day", "result": 11}, {"measurement": "serum theophylline levels", "setting": "Parkinsonian patients; slow release oral preparation 150 mg/day, after one week", "result": 4.44, "unit": "mg/L"}]}, {"smiles": "Cc1cc(Cn2nnc3c(-c4ccco4)nc(N)nc32)ccc1N", "note": "[Form A, 3-(4-amino-3-methylbenzyl)-7-(furan-2-yl)-3H-[1,2,3]triazolo[4,5-d]pyrimidin-5-amine]", "values": [{"measurement": "relative stability of the polymorphs", "setting": "[2]", "result": "more stable polymorph"}, {"measurement": "relative stability of the polymorphs", "setting": "[2]; listed as form A", "result": "more thermodynamically more stable"}]}, {"smiles": "CCCn1c(=O)c2c(nc(/C=C/c3ccc(OC)c(OC)c3)n2C)n(CCC)c1=O", "note": "[KF 17837, E-8-(3,4dimethoxystyryl)-1,3-dipropyl-7-methylxanthine]", "values": [{"measurement": "anticataleptic effects of a subthreshold dose of L-DOPA plus benserazide", "setting": "cataleptic responses; in vivo", "result": "potentiated"}, {"measurement": "catalepsy induced by haloperidol and reserpine", "setting": "cataleptic responses; in vivo", "result": "reduced"}, {"measurement": "cataleptic responses induced by intracerebroventricular CGS 21680", "setting": "cataleptic responses; oral administration", "result": "significantly ameliorated"}]}]}
